According to patent publication US20040146498A1, “Pharmaceutical combinations” (priority 2001, published 2004):

Test system: femoral artery thrombosis
Assay: Canine femoral artery thrombosis model
Type: in vivo
Settings: Compound A administered in combination with aspirin (pre-treatment) versus either agent alone; dog; FIG. 1; not statistically significant
From the text: Canine Femoral Artery Thrombosis Model—Compound A and Aspirin Compound A as defined above was used in combination with aspirin in a dog model of femoral artery thrombosis to determine whether combination of a P2T-receptor antagonist and pre-treatment with aspirin would have an improved profile when compared to the effect of either agent used alone.

Q: With `CCCSc1nc(N[C@@H]2C[C@H]2c2ccc(F)c(F)c2)c2nnn([C@@H]3C[C@H](OCCO)[C@@H](O)[C@H]3O)c2n1` [Compound A] as the compound, how does the “anti-thrombotic potency (dose (ID50) required to produce 50% inhibition of thrombosis)” value read?
A: trend for an increased anti-thrombotic potency
